Measurements as given in ChEMBL document CHEMBL1201862, “PubChem BioAssay data set” (2004).
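Interpolation was linear, between the two tested concentrations surrounding the appropriate level; five concentrations were tested over 48 hours in 96-well plates. Abbreviation: GI50, concentration required for 50% inhibition of growth.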 The source made the active and inactive calls. Rule as the data show it: active = GI50 up to about 1.1 µM and inactive = higher.

What was measured:
Test in all cases: NCI tumour cell line growth inhibition, 48 h
UO-31 = system: UO-31
OVCAR-5 = system: OVCAR-5
LOX IMVI = system: LOX IMVI
MDA-MB-435 = system: MDA-MB-435
NCI-H226 = system: NCI-H226
BT-549 = system: BT-549
HCT-116 = system: HCT-116
HT-29 = system: HT-29
RXF 393 = system: RXF 393
OVCAR-4 = system: OVCAR-4
COLO 205 = system: COLO 205
A498 = system: A498
SK-MEL-5 = system: SK-MEL-5
KM12 = system: KM12
SK-OV-3 = system: SK-OV-3
Hs-578T = system: Hs-578T
A549 = system: A549
U-251 = system: U-251
SNB-19 = system: SNB-19
HOP-62 = system: HOP-62
M14 = system: M14
SK-MEL-28 = system: SK-MEL-28
MDA-N = system: MDA-N
NCI/ADR-RES = system: NCI/ADR-RES
IGROV-1 = system: IGROV-1
SF-268 = system: SF-268
CAKI-1 = system: CAKI-1
EKVX = system: EKVX
OVCAR-3 = system: OVCAR-3
OVCAR-8 = system: OVCAR-8
Malme-3M = system: Malme-3M
786-0 = system: 786-0
UACC-257 = system: UACC-257
MCF7 = system: MCF7
PC-3 = system: PC-3
HCC 2998 = system: HCC 2998
HL-60 = system: HL-60
SK-MEL-2 = system: SK-MEL-2
HCT-15 = system: HCT-15
HOP-92 = system: HOP-92
DU-145 = system: DU-145
NCI-H23 = system: NCI-H23
SW-620 = system: SW-620
CCRF-CEM = system: CCRF-CEM
SN12C = system: SN12C
SR = system: SR
MOLT-4 = system: MOLT-4
NCI-H460 = system: NCI-H460
SF-295 = system: SF-295
SNB-75 = system: SNB-75
T47D = system: T47D
UACC-62 = system: UACC-62
K562 = system: K562
NCI-H522 = system: NCI-H522
MDA-MB-231 = system: MDA-MB-231
SF-539 = system: SF-539
TK-10 = system: TK-10
ACHN = system: ACHN
RPMI-8226 = system: RPMI-8226

Structure (SMILES): CCN(CC)CCNc1n[n+]([O-])c2cc([N+](=O)[O-])ccc2[n+]1[O-]
- GI50 (UO-31): 1.49 µM (inactive)
- GI50 (OVCAR-5): 1.47 µM (inactive)
- GI50 (LOX IMVI): 0.467 µM (active)
- GI50 (MDA-MB-435): 0.826 µM (active)
- GI50 (NCI-H226): 1.87 µM (inactive)
- GI50 (BT-549): 1.81 µM (inactive)
- GI50 (HCT-116): 0.318 µM (active)
- GI50 (HT-29): 0.252 µM (active)
- GI50 (RXF 393): 1.47 µM (inactive)
- GI50 (OVCAR-4): 0.828 µM (active)
- GI50 (COLO 205): 0.348 µM (active)
- GI50 (A498): 1.08 µM (active)
- GI50 (SK-MEL-5): 0.362 µM (active)
- GI50 (KM12): 0.543 µM (active)
- GI50 (SK-OV-3): 0.729 µM (active)
- GI50 (Hs-578T): 3.11 µM (inactive)
- GI50 (A549): 0.678 µM (active)
- GI50 (U-251): 0.701 µM (active)
- GI50 (SNB-19): 1.28 µM (inactive)
- GI50 (HOP-62): 0.385 µM (active)
- GI50 (M14): 0.423 µM (active)
- GI50 (SK-MEL-28): 5.35 µM (inactive)
- GI50 (MDA-N): 0.562 µM (active)
- GI50 (NCI/ADR-RES): 1.11 µM (active)
- GI50 (IGROV-1): 0.132 µM (active)
- GI50 (SF-268): 0.661 µM (active)
- GI50 (CAKI-1): 0.204 µM (active)
- GI50 (EKVX): 1.9 µM (inactive)
- GI50 (OVCAR-3): 0.849 µM (active)
- GI50 (OVCAR-8): 0.391 µM (active)

Structure (SMILES): Cc1nc2cc3ccccc3cc2[nH]c1=O
- GI50 (UO-31): 54.8 µM (inactive)
- GI50 (Malme-3M): > 100 µM (inactive)
- GI50 (786-0): 44.9 µM (inactive)
- GI50 (UACC-257): > 100 µM (inactive)
- GI50 (MCF7): 30.2 µM (inactive)
- GI50 (OVCAR-5): > 100 µM (inactive)
- GI50 (PC-3): > 100 µM (inactive)
- GI50 (HCC 2998): > 100 µM (inactive)
- GI50 (HL-60): > 100 µM (inactive)
- GI50 (SK-MEL-2): > 100 µM (inactive)
- GI50 (LOX IMVI): > 100 µM (inactive)
- GI50 (MDA-MB-435): > 100 µM (inactive)
- GI50 (HCT-15): 82 µM
- GI50 (NCI-H226): 53.2 µM (inactive)
- GI50 (HOP-92): 26.1 µM (inactive)
- GI50 (BT-549): > 100 µM (inactive)
- GI50 (DU-145): > 100 µM (inactive)
- GI50 (NCI-H23): 89.5 µM (inactive)
- GI50 (SW-620): > 100 µM (inactive)
- GI50 (HCT-116): > 100 µM (inactive)
- GI50 (HT-29): > 100 µM (inactive)
- GI50 (CCRF-CEM): 51.2 µM (inactive)
- GI50 (RXF 393): 47.5 µM (inactive)
- GI50 (OVCAR-4): 51.1 µM (inactive)
- GI50 (SN12C): > 100 µM (inactive)
- GI50 (COLO 205): > 100 µM (inactive)
- GI50 (A498): 19.8 µM (inactive)
- GI50 (SK-MEL-5): 96.2 µM (inactive)
- GI50 (KM12): 85.1 µM (inactive)
- GI50 (SK-OV-3): > 100 µM (inactive)
- GI50 (SR): 78.3 µM (inactive)
- GI50 (MOLT-4): 44 µM (inactive)
- GI50 (NCI-H460): 61.1 µM (inactive)
- GI50 (SF-295): 91.2 µM (inactive)
- GI50 (A549): > 100 µM (inactive)
- GI50 (SNB-75): 24.5 µM (inactive)
- GI50 (U-251): 55.1 µM (inactive)
- GI50 (SNB-19): 92.3 µM (inactive)
- GI50 (T47D): 55.2 µM (inactive)
- GI50 (UACC-62): 36.3 µM (inactive)
- GI50 (HOP-62): 71.6 µM (inactive)
- GI50 (M14): > 100 µM (inactive)
- GI50 (SK-MEL-28): > 100 µM (inactive)
- GI50 (MDA-N): > 100 µM (inactive)
- GI50 (NCI/ADR-RES): 77.3 µM (inactive)
- GI50 (K562): 38.8 µM (inactive)
- GI50 (IGROV-1): 47.9 µM (inactive)
- GI50 (SF-268): 39.3 µM (inactive)
- GI50 (CAKI-1): 38.1 µM (inactive)
- GI50 (EKVX): 0.805 µM (active)
- GI50 (NCI-H522): 59.4 µM (inactive)
- GI50 (MDA-MB-231): 72.3 µM (inactive)
- GI50 (OVCAR-3): 68.1 µM (inactive)
- GI50 (SF-539): 53.2 µM (inactive)
- GI50 (TK-10): 80.2 µM (inactive)
- GI50 (OVCAR-8): 70.5 µM (inactive)

Structure (SMILES): CC(O)(P(=O)(O)O)P(=O)(O)OCC(O)CN1CCOCC1 (stereo not drawn)
- GI50 (UO-31): > 100 µM (inactive)
- GI50 (Malme-3M): > 100 µM (inactive)
- GI50 (786-0): > 100 µM (inactive)
- GI50 (UACC-257): > 100 µM (inactive)
- GI50 (MCF7): > 100 µM (inactive)
- GI50 (OVCAR-5): > 100 µM (inactive)
- GI50 (PC-3): > 100 µM (inactive)
- GI50 (HCC 2998): > 100 µM (inactive)
- GI50 (HL-60): > 100 µM (inactive)
- GI50 (LOX IMVI): > 100 µM (inactive)
- GI50 (MDA-MB-435): > 100 µM (inactive)
- GI50 (HCT-15): > 100 µM
- GI50 (NCI-H226): > 100 µM (inactive)
- GI50 (HOP-92): > 100 µM (inactive)
- GI50 (BT-549): > 100 µM (inactive)
- GI50 (DU-145): > 100 µM (inactive)
- GI50 (NCI-H23): > 100 µM (inactive)
- GI50 (SW-620): > 100 µM (inactive)
- GI50 (HCT-116): > 100 µM (inactive)
- GI50 (HT-29): > 100 µM (inactive)
- GI50 (CCRF-CEM): > 100 µM (inactive)
- GI50 (RXF 393): > 100 µM (inactive)
- GI50 (COLO 205): > 100 µM (inactive)
- GI50 (A498): > 100 µM (inactive)
- GI50 (KM12): > 100 µM (inactive)
- GI50 (SK-OV-3): > 100 µM (inactive)
- GI50 (SR): > 100 µM (inactive)
- GI50 (MOLT-4): > 100 µM (inactive)
- GI50 (NCI-H460): > 100 µM (inactive)
- GI50 (Hs-578T): > 100 µM (inactive)
- GI50 (SF-295): > 100 µM (inactive)
- GI50 (A549): > 100 µM (inactive)
- GI50 (U-251): > 100 µM (inactive)
- GI50 (SNB-19): > 100 µM (inactive)
- GI50 (UACC-62): > 100 µM (inactive)
- GI50 (HOP-62): > 100 µM (inactive)
- GI50 (M14): > 100 µM (inactive)
- GI50 (SK-MEL-28): > 100 µM (inactive)
- GI50 (MDA-N): > 100 µM (inactive)
- GI50 (NCI/ADR-RES): > 100 µM (inactive)
- GI50 (K562): > 100 µM (inactive)
- GI50 (IGROV-1): > 100 µM (inactive)
- GI50 (SF-268): > 100 µM (inactive)
- GI50 (CAKI-1): > 100 µM (inactive)
- GI50 (EKVX): > 100 µM (inactive)
- GI50 (ACHN): > 100 µM (inactive)
- GI50 (NCI-H522): > 100 µM (inactive)
- GI50 (MDA-MB-231): > 100 µM (inactive)
- GI50 (SF-539): 95.1 µM (inactive)
- GI50 (RPMI-8226): > 100 µM (inactive)
- GI50 (TK-10): > 100 µM (inactive)
- GI50 (OVCAR-8): > 100 µM (inactive)
